From PMC8209036, “Structural basis for late maturation steps of the human mitoribosomal large subunit” (Nature Communications, 2021) come the findings set out here.

Test [1] deals with T1, NSUN4 (MTERF4-NSUN4 complex) (Homo sapiens, UniProt Q96CB9).
T1 construct: with Transcription termination factor 4, mitochondrial
The experiment in a line: cryo-EM structure. The format is binding. Particulars: no RNA substrate in active site; co-purified, not added; complex bound to mt-LSU assembly intermediates.

Test [2] deals with T2, GTPBP5 (GTPBP5::FLAG; GTPBP5^IP) (Homo sapiens, UniProt Q9H4K7).
T2 construct: gene MTG2; Obg-domain and G-domain
T2 sequence (Q9H4K7 1-406): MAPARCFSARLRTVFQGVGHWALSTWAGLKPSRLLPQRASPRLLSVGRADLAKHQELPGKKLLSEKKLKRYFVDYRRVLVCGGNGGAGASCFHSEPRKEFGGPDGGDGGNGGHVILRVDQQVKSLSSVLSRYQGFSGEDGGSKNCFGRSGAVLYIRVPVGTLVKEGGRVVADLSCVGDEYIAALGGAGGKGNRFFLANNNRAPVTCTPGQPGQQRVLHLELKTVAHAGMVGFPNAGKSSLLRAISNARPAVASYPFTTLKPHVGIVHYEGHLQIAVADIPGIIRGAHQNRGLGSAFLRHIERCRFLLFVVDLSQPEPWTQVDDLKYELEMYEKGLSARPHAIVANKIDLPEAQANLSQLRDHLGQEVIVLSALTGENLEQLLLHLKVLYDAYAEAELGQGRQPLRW
The experiment in a line: cryo-EM structure. The format is binding. The following applies: co-purified, not added; G-domain active site; switch I in state 2, bound to mt-LSU assembly intermediate.

T1 sequence (Q96CB9 26-384): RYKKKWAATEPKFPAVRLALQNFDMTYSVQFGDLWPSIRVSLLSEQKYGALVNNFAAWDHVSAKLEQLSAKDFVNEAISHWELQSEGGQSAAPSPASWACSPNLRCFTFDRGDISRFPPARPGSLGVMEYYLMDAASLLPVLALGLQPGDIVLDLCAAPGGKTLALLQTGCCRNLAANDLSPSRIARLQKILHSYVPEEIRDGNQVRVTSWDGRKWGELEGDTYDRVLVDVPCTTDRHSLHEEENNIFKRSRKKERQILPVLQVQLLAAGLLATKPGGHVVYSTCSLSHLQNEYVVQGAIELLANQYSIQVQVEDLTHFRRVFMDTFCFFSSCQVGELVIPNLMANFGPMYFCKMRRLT
T1 sequence (Q7Z6M4 43-381 partner): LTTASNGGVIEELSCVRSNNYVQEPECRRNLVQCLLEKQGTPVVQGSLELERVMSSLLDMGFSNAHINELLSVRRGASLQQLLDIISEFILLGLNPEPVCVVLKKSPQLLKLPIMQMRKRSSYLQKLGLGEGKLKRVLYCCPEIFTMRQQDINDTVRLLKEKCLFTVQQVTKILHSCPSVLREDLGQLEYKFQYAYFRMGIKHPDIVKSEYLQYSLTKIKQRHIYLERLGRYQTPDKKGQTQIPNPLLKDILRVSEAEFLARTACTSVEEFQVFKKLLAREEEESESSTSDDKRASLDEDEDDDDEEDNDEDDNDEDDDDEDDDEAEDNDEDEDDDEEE

In the case of `C[S+](CC[C@H](N)C(=O)O)C[C@H]1O[C@@H](n2cnc3c(N)ncnc32)[C@H](O)[C@@H]1O` (some centres unmarked) [S-adenosyl-methionine], the cryo-EM structure entry in test [1] is “the methyl-donor S-adenosyl-methionine (SAM) is observed in the NSUN4 active site”.
As to `Nc1nc2c(ncn2[C@@H]2O[C@H](COP(=O)(O)OP(=O)(O)OP(=O)(O)O)[C@@H](O)[C@H]2O)c(=O)[nH]1` [GTP], the cryo-EM structure entry in test [2] is on record as “In our GTPBP5^IP structure, the G-domain has GTP in its active site”.
